Data as given in patent US9745321B2, “Fused pyrimidine compound, intermediate, preparation method therefor, and composition and application thereof” (SHANGHAI YINGLI PHARMACEUTICAL CO., LTD, priority 2013, dated 2017).

Tests used:
[1] = target: PI3Kδ (Homo sapiens (Human), UniProt O00329); test: PI3Kδ enzyme activity inhibition IC50 evaluation assay; assay type: biochemical; conditions: luminescence, 25 μM ATP, 50 μM PIP2, 2 hrs room temperature
Outline: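 Enzyme was preincubated with compound dilutions at 1% DMSO final in 50 mM HEPES pH 7.5, 3 mM MgCl2, 1 mM EGTA, 100 mM NaCl, 0.03% CHAPS, 2 mM DTT. Activity was read by luminescence, and inhibition rate is the mean of two tests.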

[2] = test system: Raji cells; test: Inhibition of TNF-α generation of human Raji cell induced by human IgM; assay type: cell-based; conditions: 10 μg/ml IgM stimulation, 24 hrs, ELISA
Method: Screening Test for a Drug on Inhibiting TNF-α Generation of Human Raji Cell Induced by Human IgM
• 1. Raji cell lines (source of human Burkitt's lymphoma) were employed. • 2. 1×10^5/well Raji cells were plated onto a 96-well cell culture plate. • 3. Compounds to be screened were diluted to the corresponding test concentrations and added into the cell culture system 30 minutes before IgM stimulation. • 4. 10 μg/ml IgM monoclonal antibody was added into the cell culture system to stimulate the cells generating TNF-α. • 5. 24 hrs later, the amount of TNF-α generated by the cell system was measured by ELISA method. • 6.

[3] = target: PI3Kβ (Homo sapiens (Human), UniProt P42338); test: PI3Kβ enzyme activity inhibition IC50 evaluation assay; assay type: biochemical; conditions: ratio PI3Kβ vs PI3Kδ
Method: (§1) PI3Kα, PI3Kδ, PI3Kβ and PI3Kγ Enzyme Activity Inhibition IC50 Evaluation Assay
(§2) • 1. Buffer preparation: 50 mM HEPES, pH 7.5, 3 mM MgCl2, 1 mM EGTA, 100 mM NaCl, 0.03% CHAPS. • 2. Compound was formulated in 100% DMSO in a concentration gradient, and added to a 384-well plate to a final DMSO concentration of 1%. • 3. PI3Kα, PI3Kδ, PI3Kβ and PI3Kγ enzymes were diluted to an optimum concentration with the following buffer: 50 mM HEPES, pH 7.5, 3 mM MgCl2, 1 mM EGTA, 100 mM NaCl, 0.03% CHAPS, 2 mM DTT, and transferred to a 384-well plate and incubated with the compound for a certain time. • 4. Substrate was diluted to an optimum concentration with the following buffer: 50 mM HEPES, pH 7.5, 3 mM MgCl2, 1 mM EGTA, 100 mM NaCl, 0.03% CHAPS, 2 mM DTT, 50 μM PIP2, 25 μM ATP; then added to a 384-well plate to initiate the reaction, and for PI3Kα, PI3Kβ and PI3Kγ at room temperature reacted for 1 hr, for PI3Kδ at room temperature reacted for 2 hrs. For PI3Kβ and PI3Kγ, it was still necessary to further add 10 μL ADP-Glo Detection Reagent, and then equilibrated at room temperature for 30 minutes. • 5. Read Luminescense with FlexStation, and calculate the inhibition rate as the average of two tests.

[4] = target: PI3Kγ (Homo sapiens (Human), UniProt P48736); test: PI3Kγ enzyme activity inhibition IC50 evaluation assay; assay type: biochemical; conditions: ratio PI3Kγ vs PI3Kδ
Method: as §1, §2

[5] = target: PI3Kα (Homo sapiens (Human), UniProt P42336); test: PI3Kα enzyme activity inhibition IC50 evaluation assay; assay type: biochemical; conditions: ratio PI3Kα vs PI3Kδ
Outline: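 Enzymes were preincubated with compound (1% DMSO final) in HEPES pH 7.5 buffer with MgCl2, EGTA, NaCl, CHAPS and 2 mM DTT. Reaction started with 50 μM PIP2 and 25 μM ATP, 1 h at room temperature. Luminescence was read, with ADP-Glo detection reagent added for β and γ; inhibition is the mean of two tests.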

Sequence of PI3Kβ (P42338 whole entry): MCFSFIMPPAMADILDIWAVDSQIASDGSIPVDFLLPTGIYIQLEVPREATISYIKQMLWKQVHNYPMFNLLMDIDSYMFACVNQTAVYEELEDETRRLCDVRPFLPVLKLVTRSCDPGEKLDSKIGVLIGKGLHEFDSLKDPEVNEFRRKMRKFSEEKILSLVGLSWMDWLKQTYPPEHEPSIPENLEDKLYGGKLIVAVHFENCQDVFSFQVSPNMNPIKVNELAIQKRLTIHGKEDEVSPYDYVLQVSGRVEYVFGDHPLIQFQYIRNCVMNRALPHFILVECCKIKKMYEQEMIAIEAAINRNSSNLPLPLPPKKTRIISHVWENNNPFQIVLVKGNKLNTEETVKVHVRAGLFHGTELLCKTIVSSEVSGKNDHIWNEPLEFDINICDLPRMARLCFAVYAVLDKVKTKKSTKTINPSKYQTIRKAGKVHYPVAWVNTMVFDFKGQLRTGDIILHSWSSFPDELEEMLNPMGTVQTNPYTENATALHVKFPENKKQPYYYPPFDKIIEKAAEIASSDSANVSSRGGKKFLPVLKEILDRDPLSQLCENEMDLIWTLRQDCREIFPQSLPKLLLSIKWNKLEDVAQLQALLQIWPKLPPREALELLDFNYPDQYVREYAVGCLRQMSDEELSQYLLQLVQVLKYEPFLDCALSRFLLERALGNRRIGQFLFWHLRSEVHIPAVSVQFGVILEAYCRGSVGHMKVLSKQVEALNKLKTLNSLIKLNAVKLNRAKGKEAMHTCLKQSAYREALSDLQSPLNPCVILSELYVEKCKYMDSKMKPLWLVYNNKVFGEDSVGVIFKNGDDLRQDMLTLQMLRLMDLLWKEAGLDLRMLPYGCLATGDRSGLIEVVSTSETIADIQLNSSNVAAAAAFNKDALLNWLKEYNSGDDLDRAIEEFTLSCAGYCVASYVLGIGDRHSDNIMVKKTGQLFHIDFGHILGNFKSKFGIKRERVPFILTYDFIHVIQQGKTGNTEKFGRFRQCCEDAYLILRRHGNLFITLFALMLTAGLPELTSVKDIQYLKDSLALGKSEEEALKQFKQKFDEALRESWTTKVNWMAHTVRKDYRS
Sequence of PI3Kβ (P27986 whole entry partner): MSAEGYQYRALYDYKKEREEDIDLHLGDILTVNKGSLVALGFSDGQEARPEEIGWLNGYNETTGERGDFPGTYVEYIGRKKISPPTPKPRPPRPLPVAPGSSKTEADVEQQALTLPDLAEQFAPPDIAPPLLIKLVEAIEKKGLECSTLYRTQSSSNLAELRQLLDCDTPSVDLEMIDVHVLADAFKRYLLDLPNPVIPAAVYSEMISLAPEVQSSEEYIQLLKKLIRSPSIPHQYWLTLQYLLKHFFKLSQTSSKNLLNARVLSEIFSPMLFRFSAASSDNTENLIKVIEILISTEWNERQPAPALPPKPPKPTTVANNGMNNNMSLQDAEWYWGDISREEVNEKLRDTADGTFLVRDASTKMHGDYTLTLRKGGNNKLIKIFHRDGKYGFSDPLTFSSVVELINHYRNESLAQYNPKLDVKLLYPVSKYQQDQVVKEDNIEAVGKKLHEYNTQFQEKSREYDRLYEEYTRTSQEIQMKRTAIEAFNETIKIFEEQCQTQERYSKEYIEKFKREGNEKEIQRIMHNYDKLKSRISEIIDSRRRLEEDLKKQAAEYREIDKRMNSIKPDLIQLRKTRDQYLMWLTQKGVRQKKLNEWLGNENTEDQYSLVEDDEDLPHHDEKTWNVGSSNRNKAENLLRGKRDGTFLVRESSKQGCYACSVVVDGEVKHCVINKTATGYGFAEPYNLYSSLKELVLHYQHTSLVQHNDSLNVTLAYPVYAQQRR
Sequence of PI3Kδ (O00329 whole entry): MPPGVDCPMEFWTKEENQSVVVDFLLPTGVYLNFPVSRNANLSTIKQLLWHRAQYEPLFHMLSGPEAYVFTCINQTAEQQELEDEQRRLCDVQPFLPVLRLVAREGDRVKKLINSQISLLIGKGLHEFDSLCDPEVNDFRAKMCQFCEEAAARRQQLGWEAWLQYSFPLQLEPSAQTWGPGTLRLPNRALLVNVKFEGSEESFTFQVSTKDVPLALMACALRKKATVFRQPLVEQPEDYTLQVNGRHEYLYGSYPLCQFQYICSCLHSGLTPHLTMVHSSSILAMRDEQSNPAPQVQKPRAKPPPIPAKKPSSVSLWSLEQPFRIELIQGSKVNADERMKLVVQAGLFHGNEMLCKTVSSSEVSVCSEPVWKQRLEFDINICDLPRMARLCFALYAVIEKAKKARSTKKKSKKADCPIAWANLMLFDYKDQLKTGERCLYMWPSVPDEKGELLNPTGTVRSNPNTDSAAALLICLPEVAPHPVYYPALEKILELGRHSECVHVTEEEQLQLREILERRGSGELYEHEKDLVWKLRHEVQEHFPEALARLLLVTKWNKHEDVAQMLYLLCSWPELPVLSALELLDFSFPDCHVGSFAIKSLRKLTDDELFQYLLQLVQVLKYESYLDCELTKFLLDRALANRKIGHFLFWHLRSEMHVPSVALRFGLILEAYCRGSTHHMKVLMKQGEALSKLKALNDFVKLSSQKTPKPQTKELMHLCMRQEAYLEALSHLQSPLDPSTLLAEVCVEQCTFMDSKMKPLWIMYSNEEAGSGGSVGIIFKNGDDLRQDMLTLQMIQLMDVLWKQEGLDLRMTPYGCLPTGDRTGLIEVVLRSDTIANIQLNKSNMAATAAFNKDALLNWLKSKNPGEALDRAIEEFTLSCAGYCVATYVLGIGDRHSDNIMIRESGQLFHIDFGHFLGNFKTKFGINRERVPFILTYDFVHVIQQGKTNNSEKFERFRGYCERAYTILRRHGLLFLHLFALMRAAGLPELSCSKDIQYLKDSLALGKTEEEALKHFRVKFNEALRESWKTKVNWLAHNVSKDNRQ
Sequence of PI3Kδ (P27986 whole entry partner): as the sequence (P27986 whole entry partner) above
Sequence of PI3Kγ (P48736 whole entry): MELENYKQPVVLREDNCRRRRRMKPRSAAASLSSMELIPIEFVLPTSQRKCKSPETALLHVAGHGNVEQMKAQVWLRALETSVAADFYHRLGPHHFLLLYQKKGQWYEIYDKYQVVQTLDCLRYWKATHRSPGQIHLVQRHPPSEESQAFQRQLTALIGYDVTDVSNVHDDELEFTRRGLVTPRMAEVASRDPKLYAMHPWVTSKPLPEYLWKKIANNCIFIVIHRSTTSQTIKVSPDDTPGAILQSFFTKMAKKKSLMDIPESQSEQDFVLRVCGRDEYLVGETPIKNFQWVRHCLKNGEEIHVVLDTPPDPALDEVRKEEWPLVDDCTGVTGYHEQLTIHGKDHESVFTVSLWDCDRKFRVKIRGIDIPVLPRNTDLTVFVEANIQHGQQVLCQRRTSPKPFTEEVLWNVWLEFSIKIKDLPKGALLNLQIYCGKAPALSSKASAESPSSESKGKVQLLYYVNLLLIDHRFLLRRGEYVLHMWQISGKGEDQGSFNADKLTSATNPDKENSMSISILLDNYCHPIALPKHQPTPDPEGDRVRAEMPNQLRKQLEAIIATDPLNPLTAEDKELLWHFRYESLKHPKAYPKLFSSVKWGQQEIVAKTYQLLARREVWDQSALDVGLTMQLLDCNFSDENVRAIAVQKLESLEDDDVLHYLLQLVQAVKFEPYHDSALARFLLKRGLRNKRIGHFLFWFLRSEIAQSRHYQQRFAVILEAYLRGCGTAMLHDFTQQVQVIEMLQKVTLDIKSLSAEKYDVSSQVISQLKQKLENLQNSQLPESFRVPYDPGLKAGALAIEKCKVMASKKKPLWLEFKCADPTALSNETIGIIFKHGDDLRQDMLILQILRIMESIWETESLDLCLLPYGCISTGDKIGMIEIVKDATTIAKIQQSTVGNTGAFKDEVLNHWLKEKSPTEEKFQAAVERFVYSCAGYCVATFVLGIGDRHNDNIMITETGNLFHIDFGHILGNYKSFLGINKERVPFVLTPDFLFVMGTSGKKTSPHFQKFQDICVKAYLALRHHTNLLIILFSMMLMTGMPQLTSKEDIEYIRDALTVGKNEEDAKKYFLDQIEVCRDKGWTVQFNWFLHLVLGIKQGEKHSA
Sequence of PI3Kα (P42336 whole entry): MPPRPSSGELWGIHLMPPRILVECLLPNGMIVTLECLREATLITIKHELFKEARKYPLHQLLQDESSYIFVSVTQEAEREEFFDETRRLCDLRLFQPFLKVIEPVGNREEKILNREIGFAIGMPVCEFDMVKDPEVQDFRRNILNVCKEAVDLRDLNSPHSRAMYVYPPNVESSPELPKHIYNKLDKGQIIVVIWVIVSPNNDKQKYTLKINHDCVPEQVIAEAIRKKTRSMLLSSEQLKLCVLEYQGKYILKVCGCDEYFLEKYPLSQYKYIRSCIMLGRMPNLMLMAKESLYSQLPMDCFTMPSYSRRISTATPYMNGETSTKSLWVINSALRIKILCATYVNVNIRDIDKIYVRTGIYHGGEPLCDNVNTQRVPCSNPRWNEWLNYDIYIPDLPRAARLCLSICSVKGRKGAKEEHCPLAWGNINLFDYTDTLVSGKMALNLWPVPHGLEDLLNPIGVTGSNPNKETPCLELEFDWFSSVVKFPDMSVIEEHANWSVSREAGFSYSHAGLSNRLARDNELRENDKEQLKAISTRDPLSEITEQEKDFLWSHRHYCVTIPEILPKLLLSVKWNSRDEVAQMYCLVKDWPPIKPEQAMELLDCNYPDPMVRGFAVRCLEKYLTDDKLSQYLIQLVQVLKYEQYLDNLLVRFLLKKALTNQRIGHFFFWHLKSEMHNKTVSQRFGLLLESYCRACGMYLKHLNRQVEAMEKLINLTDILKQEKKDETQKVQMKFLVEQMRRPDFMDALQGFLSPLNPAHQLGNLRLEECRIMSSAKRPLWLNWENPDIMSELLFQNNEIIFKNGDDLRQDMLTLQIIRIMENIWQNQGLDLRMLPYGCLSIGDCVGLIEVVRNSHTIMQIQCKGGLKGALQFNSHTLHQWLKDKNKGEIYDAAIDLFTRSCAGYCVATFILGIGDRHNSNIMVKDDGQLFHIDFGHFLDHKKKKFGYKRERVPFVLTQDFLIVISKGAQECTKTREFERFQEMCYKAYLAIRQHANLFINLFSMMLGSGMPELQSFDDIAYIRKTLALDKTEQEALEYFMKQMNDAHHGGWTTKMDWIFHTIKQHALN
Sequence of PI3Kα (P27986 whole entry partner): as the sequence (P27986 whole entry partner) above

COc1ncc(-c2nc(N3CCOCC3)nc3c(CN4CCC(N5CCC5)CC4)c(C)sc23)cc1NS(C)(=O)=O [Compound 148]
IC50 [1]: 4.7 nM | IC50 [2]: 7 nM | β/δ selectivity [3]: 110 | γ/δ selectivity [4]: 587 | α/δ selectivity [5]: 280

COc1ncc(-c2nc(N3CCOCC3)nc3c(CN4CCCC4)c(C)sc23)cc1NS(C)(=O)=O [Compound 102]
IC50 [1]: 9.3 nM | β/δ selectivity [3]: 16 | γ/δ selectivity [4]: 200 | α/δ selectivity [5]: 146

Cc1sc2c(-c3cccc4[nH]ccc34)nc(N3CCOCC3)nc2c1CN1CCN(C(=O)CO)CC1 [Compound 8]
IC50 [1]: 72 nM | β/δ selectivity [3]: 27 | γ/δ selectivity [4]: 57 | α/δ selectivity [5]: 90

COc1ncc(-c2nc(N3CCOCC3)nc3c(CN4CCC(N5CCCCC5=O)CC4)c(C)sc23)cc1NS(C)(=O)=O [Compound 150]
IC50 [1]: 9.3 nM | IC50 [2]: 8.6 nM | β/δ selectivity [3]: 15 | γ/δ selectivity [4]: 221 | α/δ selectivity [5]: 39

COc1ncc(-c2nc(N3CCOCC3)nc3c(CN4CCN(C)CC4)c(C)sc23)cc1NS(C)(=O)=O [Compound 65]
IC50 [1]: 17.5 nM | IC50 [2]: 15.4 nM | β/δ selectivity [3]: 94 | γ/δ selectivity [4]: >571 | α/δ selectivity [5]: 174

COc1ncc(-c2nc(N3CCOCC3)nc3c(CN4CCC(C)(C)CC4)c(C)sc23)cc1NS(C)(=O)=O [Compound 99]
IC50 [1]: 34 nM | β/δ selectivity [3]: 24 | γ/δ selectivity [4]: 244 | α/δ selectivity [5]: 152

COc1ncc(-c2nc(N3CCOCC3)nc3c(OC4CCC(N5CCCCC5)CC4)c(C)sc23)cc1NS(C)(=O)=O (stereo not shown) [Compound 153]
IC50 [1]: 11 nM | IC50 [2]: 0.6 nM | β/δ selectivity [3]: 418 | γ/δ selectivity [4]: >909 | α/δ selectivity [5]: 42

COc1ncc(-c2nc(N3CCOCC3)nc3c(CN4CCN(CC(F)(F)F)CC4)c(C)sc23)cc1NS(C)(=O)=O [Compound 87]
IC50 [1]: 12.5 nM | IC50 [2]: 41.6 nM | β/δ selectivity [3]: 45 | γ/δ selectivity [4]: 498 | α/δ selectivity [5]: 204

COc1ncc(-c2nc(N3CCOCC3)nc3c(CN4CCC(OC)CC4)c(C)sc23)cc1NS(C)(=O)=O [Compound 83]
IC50 [1]: 11.9 nM | IC50 [2]: 6.7 nM | β/δ selectivity [3]: 24 | γ/δ selectivity [4]: >840 | α/δ selectivity [5]: 257

COc1ncc(-c2nc(N3CCOCC3)nc3c(CN4CCC5(CC4)OCCO5)c(C)sc23)cc1NS(C)(=O)=O [Compound 104]
IC50 [1]: 4.3 nM | β/δ selectivity [3]: 19 | γ/δ selectivity [4]: 377 | α/δ selectivity [5]: 159

CCN(CC)C1CCN(Cc2c(C)sc3c(-c4cnc(OC)c(NS(C)(=O)=O)c4)nc(N4CCOCC4)nc23)CC1 [Compound 110]
IC50 [1]: 4.1 nM | IC50 [2]: 3.3 nM | β/δ selectivity [3]: 275 | γ/δ selectivity [4]: 1112 | α/δ selectivity [5]: 203

COc1ncc(-c2nc(N3CCOCC3)nc3c(CN4CC(N(C)C)C4)c(C)sc23)cc1NS(C)(=O)=O [Compound 121]
IC50 [1]: 16 nM | IC50 [2]: 33.7 nM | α/δ selectivity [5]: 192

COc1ncc(-c2nc(N3CCOCC3)nc3c(CN4CCC(N5CCCCC5)CC4)c(C)sc23)cc1NS(C)(=O)=O [Compound 147]
IC50 [1]: 4.6 nM | IC50 [2]: 3.3 nM | β/δ selectivity [3]: 140 | γ/δ selectivity [4]: 567 | α/δ selectivity [5]: 225

COc1ncc(-c2nc(N3CCOCC3)nc3c(CN4CCC(C(C)(C)OC)CC4)c(C)sc23)cc1NS(C)(=O)=O [Compound 78]
IC50 [1]: 7.7 nM | IC50 [2]: 10.6 nM | β/δ selectivity [3]: 18 | γ/δ selectivity [4]: >1298 | α/δ selectivity [5]: 302

COc1ncc(-c2nc(N3CCOCC3)nc3c(CN4CCC(N5CCCC5)CC4)c(C)sc23)cc1NS(C)(=O)=O [Compound 112]
IC50 [1]: 7.6 nM | IC50 [2]: 1.1 nM | β/δ selectivity [3]: 126 | γ/δ selectivity [4]: 611 | α/δ selectivity [5]: 108

COc1ncc(-c2nc(N3CCOCC3)nc3c(CN4CCC(C(C)(C)F)CC4)c(C)sc23)cc1NS(C)(=O)=O [Compound 85]
IC50 [1]: 8.6 nM | IC50 [2]: 39.1 nM | β/δ selectivity [3]: 69 | γ/δ selectivity [4]: >1162 | α/δ selectivity [5]: 401

COc1ncc(-c2nc(N3CCOCC3)nc3c(CN4CCN(C(C)(C)C)CC4)c(C)sc23)cc1NS(C)(=O)=O [Compound 89]
IC50 [1]: 2.6 nM | IC50 [2]: 1.3 nM | α/δ selectivity [5]: 48

CC(C)(O)C1CCN(Cc2csc3c(-c4cccc5[nH]ccc45)nc(N4CCOCC4)nc23)CC1 [Compound 4]
IC50 [1]: 35.4 nM | β/δ selectivity [3]: >282 | γ/δ selectivity [4]: >282 | α/δ selectivity [5]: >282

COc1ncc(-c2nc(N3CCOCC3)nc3c(CN4CCC(C(C)C)CC4)c(C)sc23)cc1NS(C)(=O)=O [Compound 88]
IC50 [1]: 5.8 nM | IC50 [2]: 6.1 nM | β/δ selectivity [3]: 73 | γ/δ selectivity [4]: 1202 | α/δ selectivity [5]: 548

COc1ncc(-c2nc(N3CCOCC3)nc3c(CN4CCN(C(=O)CO)CC4)c(C)sc23)cc1NS(C)(=O)=O [Compound 71]
IC50 [1]: 6.8 nM | IC50 [2]: 8.6 nM | α/δ selectivity [5]: 13

COc1ncc(-c2nc(N3CCOCC3)nc3c(CN4CCC5(CC4)CNC5)c(C)sc23)cc1NS(C)(=O)=O [Compound 106]
IC50 [1]: 25.5 nM | β/δ selectivity [3]: 72 | γ/δ selectivity [4]: >392 | α/δ selectivity [5]: 129

COc1ncc(-c2nc(N3CCOCC3)nc3c(CN4CCN(C(C)(C)C)CC4)c(C)sc23)cc1NS(=O)(=O)C1CC1 [Compound 109]
IC50 [1]: 3.9 nM | β/δ selectivity [3]: 723 | γ/δ selectivity [4]: 1296 | α/δ selectivity [5]: 251

COc1ncc(-c2nc(N3CCOCC3)nc3c(CN4CCN(C(C)C)CC4)c(C)sc23)cc1NS(C)(=O)=O [Compound 91]
IC50 [1]: 3.2 nM | IC50 [2]: 3.4 nM | α/δ selectivity [5]: 60

COc1ncc(-c2nc(N3CCOCC3)nc3c(CN4CCC(N(C)C(C)C)CC4)c(C)sc23)cc1NS(C)(=O)=O [Compound 95]
IC50 [1]: 6.5 nM | IC50 [2]: 1.1 nM | β/δ selectivity [3]: 167 | γ/δ selectivity [4]: 532 | α/δ selectivity [5]: 157

COc1ncc(-c2nc(N3CCOCC3)nc3c(CN4CCC(O)CC4)c(C)sc23)cc1NS(C)(=O)=O [Compound 108]
IC50 [1]: 13 nM | β/δ selectivity [3]: 6 | γ/δ selectivity [4]: 262 | α/δ selectivity [5]: 78

COc1ncc(-c2nc(N3CCOCC3)nc3c(CN4CCN(CC(F)(F)F)CC4)c(C)sc23)cc1NS(=O)(=O)C1CC1 [Compound 84]
IC50 [1]: 47 nM | IC50 [2]: 30.4 nM | α/δ selectivity [5]: >213

COc1ncc(-c2nc(N3CCOCC3)nc3c(CN4CCCCC4)c(C)sc23)cc1NS(C)(=O)=O [Compound 86]
IC50 [1]: 12 nM | β/δ selectivity [3]: 25 | γ/δ selectivity [4]: 402 | α/δ selectivity [5]: 136

COc1ncc(-c2nc(N3CCOCC3)nc3c(CN4CCC(C)CC4)c(C)sc23)cc1NS(C)(=O)=O [Compound 101]
IC50 [1]: 12 nM | IC50 [2]: 32.6 nM | β/δ selectivity [3]: 29 | γ/δ selectivity [4]: 482 | α/δ selectivity [5]: 390

COc1ncc(-c2nc(N3CCOCC3)nc3c(CN4CCN(C(=O)C(F)(F)F)CC4)c(C)sc23)cc1NS(C)(=O)=O [Compound 90]
IC50 [1]: 4.9 nM | IC50 [2]: 31.2 nM | α/δ selectivity [5]: 69
